Measured values published in US20190169134A1, “NOVEL CLASS OF QUINOLONE HETEROCYCLIC AROMATIC MOLECULES FOR CANCER TREATMENT” (RenoTarget Therapeutics, Inc., priority 2016, published 2019).

Tests used:
MUSK = molecular target: T1, MUSK (Homo sapiens, UniProt O15146); assay: KinaseSeeker competition binding assay
T1 construct: made in house; host or cells: cell-free, rabbit reticulocyte lysate
Protocol: (§1) Compound Reno647 was profiled against the following panel of kinases at 2 μM using the KinaseSeeker™ assay: ABL1, AKT1, AKT2, AKT3, ALK, AURKA, AXL, BRAF, BTK, CDK2, CDK5, CDK7, CDK8, CSF1R, DDR1, EGFR del L747-P753 InsS, EGFR (L861Q), EGFR (G719S), EGFR, EGFR (L858R), EPHA2, EPHB2, FGFR3, FLT1/VEGFR1, FLT2/FGFR1, FLT3, FLT4/VEGFR3, GSK-3a, HER2, IGF1R, INSR, KIT, LIMK1, MET, MLK2/MAP3K10, RPS6KA5/MSK1, MUSK, p38a/MAPK12, PDGFRA, PDGFRB, PDK1, RET, RIPK2, RPS6KA1/RSK1, SRC, TEC, TESK1, TRKB, VEGFR2, and YES 1.
(§2) KinaseSeeker is a homogeneous competition binding assay where the displacement of an active site dependent probe by an inhibitor is measured by a change in luminescence signal (see FIG. 7). Luminescence readout translates into a highly sensitive and robust assay with low background and minimal interference from test compounds.
(§3) (Jester, Cox et al. 2010; Jester, Gaj et al. 2012): 10 mM stock of compound Reno647 was diluted in DMSO to a concentration of 50 μM. Prior to initiating a profiling campaign, the compound was evaluated for false positive against split-luciferase. The compound was then screened in duplicate against each of the kinases. For kinase assays, each Cfluc-Kinase was translated along with Fos-Nfluc using a cell-free system (rabbit reticulocyte lysate) at 30° C. for 90 min. A 24 μL aliquot of this lysate containing either 1 μL of DMSO (for no-inhibitor control) or compound solution in DMSO (2 LM final concentration) was incubated for 30 minutes at room temperature followed by 1 hour in the presence of a kinase specific probe. A 80 μL of luciferin assay reagent was added to each solution and luminescence was immediately measured on a luminometer.
(§4) The % Inhibition and % Activity Remaining were calculated using the following equations:
(§5) % inhibition=(ALUcontrol−ALUsample)×100
(§6) % activity=100−% inhibition.

MSK1 = molecular target: T2, MSK1 (Homo sapiens, UniProt O75582); assay: KinaseSeeker competition binding assay
T2 construct: made in house; host or cells: cell-free, rabbit reticulocyte lysate
Protocol: as §1, §2, §3, §4, §5, §6

SRC = molecular target: T3, SRC (Homo sapiens, UniProt P12931); assay: KinaseSeeker competition binding assay
T3 construct: made in house; host or cells: cell-free, rabbit reticulocyte lysate
Protocol: as §1, §2, §3, §4, §5, §6

MET = molecular target: T4, MET (Homo sapiens, UniProt P08581); assay: KinaseSeeker competition binding assay
T4 construct: made in house; host or cells: cell-free, rabbit reticulocyte lysate
Protocol: as §1, §2, §3, §4, §5, §6

AKT3 = molecular target: T5, AKT3 (Homo sapiens, UniProt Q9Y243); assay: KinaseSeeker competition binding assay
T5 construct: made in house; host or cells: cell-free system (rabbit reticulocyte lysate)
Protocol: as §1, §2, §3, §4, §5, §6

CDK2 - Cyclin E1 = molecular target: T6, CDK2 - Cyclin E1 (Homo sapiens, UniProt P24941); assay: KinaseSeeker competition binding assay
T6 construct: made in house; host or cells: cell-free system (rabbit reticulocyte lysate)
Protocol: as §1, §2, §3, §4, §5, §6

RET = molecular target: T7, RET (Homo sapiens, UniProt P07949); assay: KinaseSeeker competition binding assay
T7 construct: made in house; host or cells: cell-free, rabbit reticulocyte lysate
Protocol: as §1, §2, §3, §4, §5, §6

FLT3 = molecular target: T8, FLT3 (Homo sapiens, UniProt P36888); assay: KinaseSeeker competition binding assay
T8 construct: made in house; host or cells: cell-free, rabbit reticulocyte lysate
Protocol: as §1, §2, §3, §4, §5, §6

YES1 = molecular target: T9, YES1 (Homo sapiens, UniProt P07947); assay: KinaseSeeker competition binding assay
T9 construct: made in house; host or cells: cell-free, rabbit reticulocyte lysate
Protocol: as §1, §2, §3, §4, §5, §6

LIMK1 = molecular target: T10, LIMK1 (Homo sapiens, UniProt P53667); assay: KinaseSeeker competition binding assay
T10 construct: made in house; host or cells: cell-free, rabbit reticulocyte lysate
Protocol: as §1, §2, §3, §4, §5, §6

AURKA = molecular target: T11, AURKA (Homo sapiens, UniProt O14965); assay: KinaseSeeker competition binding assay
T11 construct: made in house; host or cells: cell-free system (rabbit reticulocyte lysate)
Protocol: as §1, §2, §3, §4, §5, §6

BTK = molecular target: T12, BTK (Homo sapiens, UniProt Q06187); assay: KinaseSeeker competition binding assay
T12 construct: made in house; host or cells: cell-free system (rabbit reticulocyte lysate)
Protocol: as §1, §2, §3, §4, §5, §6

PD-L1 = assay: qRT-PCR expression of PD-L1 in HCC827-P cells; assay type: cell-based, human; conditions: 1 μM, 24 hrs
Protocol: FIG. 11 depicts the effects of Reno647 on expression of PD-L1 in HCC827-P and HCC827-TR cells. HCC827-P and HCC827-TR cells at exponential growth phase were exposed to indicated concentration of Reno647 for 24 hrs. Total cellular RNA was extracted and cDNA was prepared followed by qRT-PCR using specific probes for PD-L1 and GAPDH (internal control) as described in the section of Materials and Methods. Tgene ΔCt value was normalized for GAPDH by calculating ΔCt=Ctgene−CtGAPDH per sample.
HCC827 P or other indicated cells at exponential growth phase were treated with indicated concentrations of compounds for 24 hours. Total cellular RNA was prepared from lysed tumor cells using an RNA Purification kit (ThermoFisher Scientific). The first-strand of cDNA was synthesized using a High Capacity cDNA reverse transcription kit (ThermoFisher Scientific) in PTC-100 Peltier Thermal Cycler PCR. The resultant cDNA (0.5-1 μL) was used in a 10 μl reaction by using Taqman Universal PCR Master Mix (ThermoFisher Scientific). The pre-designed primers and probe were purchased from Life Technologies and used for qPCR. Human GAPDH was used as an internal control. qPCR was performed using Applied Biosystems StepOne and StepOnePlus Real-Time PCR Systems according manufacturer's instructions. An initial PCR denaturation step was performed at 95° C. for 20 seconds. […]

T7 sequence (P07949 29-1114): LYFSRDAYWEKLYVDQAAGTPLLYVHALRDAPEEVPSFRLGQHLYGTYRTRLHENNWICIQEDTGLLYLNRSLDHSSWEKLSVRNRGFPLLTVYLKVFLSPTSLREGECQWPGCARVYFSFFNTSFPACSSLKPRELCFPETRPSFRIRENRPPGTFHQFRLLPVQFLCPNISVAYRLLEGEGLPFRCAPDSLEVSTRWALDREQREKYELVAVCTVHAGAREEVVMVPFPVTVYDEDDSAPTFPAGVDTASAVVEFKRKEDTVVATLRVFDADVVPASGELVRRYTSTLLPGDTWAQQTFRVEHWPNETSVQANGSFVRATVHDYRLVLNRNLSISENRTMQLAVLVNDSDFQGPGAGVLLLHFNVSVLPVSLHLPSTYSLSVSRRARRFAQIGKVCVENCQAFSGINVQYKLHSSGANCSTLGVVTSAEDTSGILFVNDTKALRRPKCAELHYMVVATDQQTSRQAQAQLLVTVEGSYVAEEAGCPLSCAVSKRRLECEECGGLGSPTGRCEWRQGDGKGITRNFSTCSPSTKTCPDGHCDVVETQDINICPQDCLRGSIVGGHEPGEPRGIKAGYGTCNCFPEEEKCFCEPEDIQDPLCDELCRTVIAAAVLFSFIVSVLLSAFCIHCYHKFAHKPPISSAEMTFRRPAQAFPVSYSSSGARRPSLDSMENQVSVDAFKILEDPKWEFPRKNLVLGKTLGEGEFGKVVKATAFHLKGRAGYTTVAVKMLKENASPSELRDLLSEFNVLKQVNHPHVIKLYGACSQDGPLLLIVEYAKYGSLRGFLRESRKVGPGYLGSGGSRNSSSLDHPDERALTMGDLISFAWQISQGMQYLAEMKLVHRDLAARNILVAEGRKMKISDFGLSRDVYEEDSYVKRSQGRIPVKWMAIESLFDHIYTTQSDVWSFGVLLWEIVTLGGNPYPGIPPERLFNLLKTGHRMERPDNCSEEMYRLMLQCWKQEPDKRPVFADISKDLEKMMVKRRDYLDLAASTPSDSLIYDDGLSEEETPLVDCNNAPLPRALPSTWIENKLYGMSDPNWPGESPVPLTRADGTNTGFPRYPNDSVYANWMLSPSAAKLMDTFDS
T9 sequence (P07947 whole entry): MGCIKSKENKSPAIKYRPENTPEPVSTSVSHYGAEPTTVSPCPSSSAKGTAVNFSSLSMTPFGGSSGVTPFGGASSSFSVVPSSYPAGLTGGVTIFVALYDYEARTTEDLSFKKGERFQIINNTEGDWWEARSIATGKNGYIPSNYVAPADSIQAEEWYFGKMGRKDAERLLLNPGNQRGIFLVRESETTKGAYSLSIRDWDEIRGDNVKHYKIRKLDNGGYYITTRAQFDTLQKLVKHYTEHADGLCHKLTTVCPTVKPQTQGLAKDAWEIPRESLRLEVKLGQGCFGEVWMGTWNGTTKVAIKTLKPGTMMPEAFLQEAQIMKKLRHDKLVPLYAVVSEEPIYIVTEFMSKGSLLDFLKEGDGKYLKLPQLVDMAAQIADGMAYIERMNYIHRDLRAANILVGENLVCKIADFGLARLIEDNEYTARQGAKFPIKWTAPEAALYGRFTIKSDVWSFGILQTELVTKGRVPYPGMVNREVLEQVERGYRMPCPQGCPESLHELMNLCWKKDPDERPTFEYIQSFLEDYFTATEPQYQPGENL
T1 sequence (O15146 24-869): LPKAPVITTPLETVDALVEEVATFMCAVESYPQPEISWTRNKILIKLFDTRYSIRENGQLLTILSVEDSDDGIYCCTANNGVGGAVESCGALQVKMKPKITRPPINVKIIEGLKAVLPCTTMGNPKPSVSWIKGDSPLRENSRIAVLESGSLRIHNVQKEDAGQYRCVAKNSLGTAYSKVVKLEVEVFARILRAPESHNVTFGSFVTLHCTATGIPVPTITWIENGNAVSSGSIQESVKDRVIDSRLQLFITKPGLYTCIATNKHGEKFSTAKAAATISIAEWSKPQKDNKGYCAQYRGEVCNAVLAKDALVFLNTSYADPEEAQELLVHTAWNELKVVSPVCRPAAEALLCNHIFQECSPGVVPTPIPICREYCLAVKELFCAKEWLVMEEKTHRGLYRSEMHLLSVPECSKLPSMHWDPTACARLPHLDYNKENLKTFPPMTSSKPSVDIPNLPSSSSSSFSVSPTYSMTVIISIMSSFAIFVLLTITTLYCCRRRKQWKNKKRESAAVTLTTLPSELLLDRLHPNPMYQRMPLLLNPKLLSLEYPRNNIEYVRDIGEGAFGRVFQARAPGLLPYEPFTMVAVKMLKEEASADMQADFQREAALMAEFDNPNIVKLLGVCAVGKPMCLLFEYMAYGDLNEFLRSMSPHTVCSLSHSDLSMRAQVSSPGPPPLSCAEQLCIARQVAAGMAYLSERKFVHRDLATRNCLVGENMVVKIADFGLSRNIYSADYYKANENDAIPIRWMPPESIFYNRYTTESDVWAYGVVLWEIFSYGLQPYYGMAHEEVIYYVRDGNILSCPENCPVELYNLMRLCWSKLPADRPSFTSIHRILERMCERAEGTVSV
T11 sequence (O14965 whole entry): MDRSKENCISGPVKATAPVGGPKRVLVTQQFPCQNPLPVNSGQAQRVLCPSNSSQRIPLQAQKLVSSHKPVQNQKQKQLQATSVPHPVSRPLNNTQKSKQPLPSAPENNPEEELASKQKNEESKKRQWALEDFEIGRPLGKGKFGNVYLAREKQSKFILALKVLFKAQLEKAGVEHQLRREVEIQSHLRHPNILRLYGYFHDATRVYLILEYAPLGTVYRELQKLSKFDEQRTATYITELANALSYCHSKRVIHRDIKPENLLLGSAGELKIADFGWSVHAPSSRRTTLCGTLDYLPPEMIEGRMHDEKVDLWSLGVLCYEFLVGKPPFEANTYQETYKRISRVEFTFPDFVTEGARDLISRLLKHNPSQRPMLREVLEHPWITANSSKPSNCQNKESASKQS
T3 sequence (P12931 whole entry): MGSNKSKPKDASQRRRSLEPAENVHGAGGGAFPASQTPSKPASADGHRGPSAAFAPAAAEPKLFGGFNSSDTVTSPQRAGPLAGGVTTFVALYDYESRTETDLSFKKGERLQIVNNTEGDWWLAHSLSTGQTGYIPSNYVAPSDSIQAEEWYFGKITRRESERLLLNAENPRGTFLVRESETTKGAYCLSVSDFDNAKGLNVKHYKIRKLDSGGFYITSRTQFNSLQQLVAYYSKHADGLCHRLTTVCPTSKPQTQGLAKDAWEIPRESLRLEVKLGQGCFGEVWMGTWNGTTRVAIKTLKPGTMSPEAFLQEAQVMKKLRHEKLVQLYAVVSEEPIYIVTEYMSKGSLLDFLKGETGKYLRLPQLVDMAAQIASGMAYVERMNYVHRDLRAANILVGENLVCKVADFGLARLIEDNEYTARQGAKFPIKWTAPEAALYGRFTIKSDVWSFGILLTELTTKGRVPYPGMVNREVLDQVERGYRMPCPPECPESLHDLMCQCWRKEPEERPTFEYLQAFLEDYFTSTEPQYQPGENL
T5 sequence (Q9Y243 whole entry): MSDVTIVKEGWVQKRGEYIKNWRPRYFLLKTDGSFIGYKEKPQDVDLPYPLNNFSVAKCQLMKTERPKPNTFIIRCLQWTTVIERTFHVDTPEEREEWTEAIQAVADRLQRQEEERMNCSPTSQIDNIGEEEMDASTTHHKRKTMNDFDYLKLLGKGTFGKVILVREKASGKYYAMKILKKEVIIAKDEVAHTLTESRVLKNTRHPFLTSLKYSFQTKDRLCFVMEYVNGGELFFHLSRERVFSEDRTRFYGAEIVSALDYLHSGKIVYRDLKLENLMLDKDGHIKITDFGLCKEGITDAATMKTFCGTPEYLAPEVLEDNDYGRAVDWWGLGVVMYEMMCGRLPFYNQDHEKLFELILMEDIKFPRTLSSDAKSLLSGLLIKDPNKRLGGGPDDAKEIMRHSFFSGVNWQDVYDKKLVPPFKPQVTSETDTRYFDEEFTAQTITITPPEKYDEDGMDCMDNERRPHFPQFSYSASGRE
T2 sequence (O75582 whole entry): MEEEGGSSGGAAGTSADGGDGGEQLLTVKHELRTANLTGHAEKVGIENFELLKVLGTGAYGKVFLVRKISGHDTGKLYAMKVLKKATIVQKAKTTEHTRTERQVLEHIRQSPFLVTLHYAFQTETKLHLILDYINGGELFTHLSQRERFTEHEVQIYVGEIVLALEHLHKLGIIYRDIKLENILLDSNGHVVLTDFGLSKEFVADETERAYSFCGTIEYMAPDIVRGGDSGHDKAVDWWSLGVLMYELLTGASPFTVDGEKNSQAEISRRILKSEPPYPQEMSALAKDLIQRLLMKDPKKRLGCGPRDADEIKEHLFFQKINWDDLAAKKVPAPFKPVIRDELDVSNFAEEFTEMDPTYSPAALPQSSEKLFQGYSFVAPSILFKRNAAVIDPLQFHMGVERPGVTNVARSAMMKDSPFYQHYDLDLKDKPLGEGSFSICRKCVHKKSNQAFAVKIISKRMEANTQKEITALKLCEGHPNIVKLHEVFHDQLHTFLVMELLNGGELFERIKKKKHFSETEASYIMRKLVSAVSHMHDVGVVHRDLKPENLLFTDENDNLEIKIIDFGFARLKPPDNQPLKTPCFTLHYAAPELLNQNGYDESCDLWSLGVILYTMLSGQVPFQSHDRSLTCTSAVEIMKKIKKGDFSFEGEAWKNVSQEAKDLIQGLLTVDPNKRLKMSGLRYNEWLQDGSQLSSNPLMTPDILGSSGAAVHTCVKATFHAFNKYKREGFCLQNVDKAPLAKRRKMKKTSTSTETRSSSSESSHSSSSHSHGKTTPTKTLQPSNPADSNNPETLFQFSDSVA

remaining binding at 2 µM (MUSK): 91.8% | remaining binding at 2 µM (MSK1): 100% | remaining binding at 2 µM (SRC): 84.9% | remaining binding at 2 µM (MET): 100% | remaining binding at 2 µM (AKT3): 100% | remaining binding at 2 µM (CDK2 - Cyclin E1): 100% | remaining binding at 2 µM (RET): 100% | remaining binding at 2 µM (FLT3): 100% | remaining binding at 2 µM (YES1): 87.1% | remaining binding at 2 µM (LIMK1): 100% | remaining binding at 2 µM (AURKA): 100% | remaining binding at 2 µM (BTK): 93.1%
SMILES: C#Cc1cccc(Nc2ncnc3cc(OCCOC)c(NC(=O)c4ccc(F)c([N+](=O)[O-])c4)cc23)c1 [Reno647, 4-Fluoro-N-[4-(3-ethynyl-phenylamino)-7-(2-methoxy-ethoxy)-quinazolin-6-yl]-3-nitro-benzamide]
reduction of PD-L1 expression (PD-L1): Over 93%
